Patent publication US9144594B2, “Cathepsin L mediated diseases and associated methods and products” (University of Miami, priority 2005, dated 2015)
Entries after “also recorded” stand apart in the source; their conditions may differ.

What was measured:
[1] = molecular target: T1, cathepsin L (Homo sapiens, UniProt P07711); test: Processing of recombinant dynamin by purified CatL in vitro; assay type: biochemical
T1 construct: purchased Sigma, Saint Louis, Mo
Procedure: Reinheckel and colleges have developed the bioinformatics tool ‘PEPS’ (Prediction of Endopeptidase Substrates) to predict endopeptidase cleavage sites. By using PEPS, three putative cathepsin L sites within dynamin were identified (FIG. 4A). To assess whether cathepsin L could cleave dynamin at neutral pH 7.0, recombinant dynamin 1 was incubated with purified cathepsin L (Stressgene) and respective proteolytic fragments were determined using anti-dynamin antibodies that recognize N-terminal GTPase domain (Stressgene). […] The most prominent proteolytic fragment traveled with molecular weight of approximately 40 kD. […] Thus, self-assembly of dynamin:GTPγS protected from cathepsin L cleavage. The middle domain and the […] mediate dynamin self-assembly into higher order structures. Based on the 3D-structure of self-assembled dynamin determined by cry-EM, the middle and the GAP domains are localized within self-assembled dynamin and thus amino acid sequences situated within either of these domains are predicted to be inaccessible for cathepsin L. Since activity of cathepsin L at pH 7.0 was marginal if GTP was not added in the assay, in order to examine whether GTPγS and thus self-assembly can protect from cathepsin L cleavage in general, assays were performed at lower pHs. As expected, at pH 5.0 and 6.0 cathepsin L potently proteolyzed recombinant dynamin (FIG. 4E). […] Thus, generation of 40 kD fragment upon addition of GTP in the assay and protection of the cleavage by GTPγS are consistent with primary cleavage site for cathepsin L to be present within the middle domain.
GTP in vitro and in vivo. To further examine if proteolysis of dynamin by cytoplasmic CatL occurs during proteinuric kidney disease, it was examined whether purified dynamin is cleaved by CatL in vitro at neutral pH. The PEPS algorithm identified three putative CatL recognition motifs within dynamin (FIG. 19A): amino acids 55-59 (LPRGS; SEQ ID NO.28) within the GTPase domain, 354-359 (ELSGGA; SEQ ID NO.29) within the middle domain, and 614-618 (FLRAG; SEQ ID NO.30) within the pleckstrin-homology (PH) domain. […] The cleavage pattern obtained in vitro is almost identical to that observed in podocytes after addition of LPS (FIG. 18A, compare lanes 3 and 5). p40 is the predicted size of the N-terminal fragment after cleavage at the ELSGGA sequence (FIG. 19A; SEQ ID NO.29). Another fragment, p55, is observed in the absence of added protease (FIG. 19C, lane 1), likely during protein preparation. Thus, p55 is not a precursor of p40. Furthermore, incubation of dynamin with CatB generated p55 in a nucleotide-independent manner (FIG. 19F, lanes 2-4), whereas furin, another protease also found in podocytes in vivo, was unable to cleave dynamin (FIG. 19F, lanes 6-8). Thus, while p55 is produced by a number of proteases and thus represents a “hot spot” for proteolysis, p40 is generated by CatL only when dynamin is in the GTP-bound conformation.
At pH 5.0 and 6.0, CatL was highly reactive towards recombinant dynamin, even in the absence of GTP (FIG. 19D, lanes 2 and 4).
Recombinant dynamin was purified as described (Damke et al., 2001). 1 μg of dynamin (10 pmol) was diluted in buffer containing 200 mM NaCl, 10 mM HEPES pH 7.0, 2 mM EGTA, 1 mM MgCl2 and 1 mM DTT. When indicated 200 μM of GTP or 1 mM of GTPγS was added, and dynamin was allowed to bind nucleotides for 10 min on ice. Reaction was initiated by addition of 0.5 μl of purified CatL (S.A. 4.13 units/mg of protein from Sigma, Saint Louis, Mo.), and samples were placed at 37° C. in the water bath for 10 min. Total assay volume was 20 μl. Reaction was terminated with addition of E-64d inhibitor (Sigma, Saint Louis, Mo.), and sample buffer. For Western blot analysis 5 μl of the samples was run on 10% SDS-PAGE. When CatB (S.A. 3 units/mg of protein from Sigma, Saint Louis, Mo.) or recombinant human furin (from R&D Systems, Minneapolis, Minn.) were used, 2 μl of the enzymes were added in the assay.

[2] = test system: podocytes; test: Scrape wound (wound healing) assay of podocytes; assay type: cell-based, mouse; conditions: pretreatment 24 h; untreated cells 31%
Procedure: Functionally, lipid raft-associated uPAR has been implicated in cell migration (21). The motility of cultured podocytes was analyzed to explore the consequences of increased uPAR expression in lipid rafts. First, podocyte cell lines were established with stable knock down of uPAR expression using siRNA. The efficiency of uPAR-siRNA was confirmed by both semi-quantitative RT-PCR (>90% inhibition) and Western blotting (>70%) (FIG. 12A). A modified multi-well Boyden chamber assay was used to assess the random migration of differentiated podocytes. […] To test whether this effect was mediated by uPAR, uPAR knock-down studies were performed by stably transfecting uPAR-siRNA into podocytes. […] The distance from the wound margin migrated by cells was related to the total distance of the scar and expressed as percentage closure 12 h after post-wound incubation. […]
To study the directional movement of podocytes, wound healing assay was performed. […] The cell migratory distance was calculated by averaging the distance from the wound edge to the DAPI-labeled nucleus of the maximally migrated cell in five distinct border zones. The percentage of closure was calculated as migratory distance from both sides versus initial wound track width.

[3] = test system: lysosomes; test: Lysosomal leakage assay using Lucifer Yellow in podocytes; assay type: cell-based, mouse
From the text: Next the reason for the relocalization of CatL in LPS treated podocytes was examined. To examine the possibility of lysosomal leakage, the localization of Lucifer Yellow, a cellular dye that is readily taken up into lysosomes was examined.

[4] = test system: dynamin-dynamin interactions; test: FLIM analysis of dynamin-dynamin interactions (self-assembly) in podocytes; assay type: cell-based, mouse; conditions: Table 4; donor GTPase-a488, acceptor Hudy1-a568; in ps
Procedure: In one embodiment the cell-based assay to monitor dynamin-dynamin interactions is performed on a cultured mouse podocyte cell line and the readout of dynamin self-assembly using fluorescence lifetime imaging microscopy (FLIM). FLIM is based on the fluorescence resonance energy transfer (FRET) between the donor and acceptor that shortens the lifetime of the donor if the acceptor distance is within ≈100 Å (10 nm). […] The assay is based on overexpressing dynamin in podocytes, and subsequently staining fixed cells with monoclonal anti-dynamin antibodies that have been conjugated with donor or acceptor florophores. In one embodiment of the invention, Alexa-488 is used as the donor florophore and Alexa-568 is used as the acceptor florophore. In yet another embodiment the donor florophore is dynamin conjugated enhanced-cyan fluorescence protein (ECFP) and the acceptor is dynamin conjugated enhanced yellow-fluorescence protein (EYFP). It will be appreciated by the person of ordinary skill in the art that numerous combinations of FRET donor and acceptors can be used, which are readily available and known. In one embodiment, the FLIM assay is carried out in COS cells and the donor can be selected from the list consisting of: ECFP-WT, ECFP-1690K, ECFP-K44A, ECFP-K694A, and the -acceptor can be selected from the list consisting of: EYFP, EYFP-WT, EYFP-K44A, EYFP-1690K, EYFP-K694A. In yet another embodiment the FLIM assay is performed in podocytes and the donor is GTPase-Alexa488 and the acceptor is selected from the list consisting of: DAM-Alexa568, GTPase-Alexa568, and Hudyl-Alexa568. Cells are stained by mixing both donor and acceptor florophores in equal amounts, and examining the spatially-restricted lifetime shortening in cells detects the localization of dynamin-dynamin interactions in cells. Since dynamin-dynamin interactions are vital for the function of the podocyte, it will be appreciated by the person of ordinary skill in the art that this assay can now be used to screen peptides, small molecules or drugs which can affect these molecular interactions. For example such molecules are cytocholasin D, jasplakinolide, colchisine, dynK44A, dynK694A, dynWT, dynI690K, dynR725A (SEQ ID NO.4), dynL356Q, G358V, (SEQ ID NO.3) any combination thereof, etc.
In order to test the hypothesis that self-assembly of dynamin was protecting its cathepsin L processing in cultured podocytes, dynamin self-assembly in live cells was examined using fluorescence lifetime imaging microscopy (FLIM). FLIM is based on the fluorescence resonance energy transfer (FRET) between the donor and the acceptor that shortens the lifetime of the donor if the acceptor distance is within ≈100 Å (10 nm). […] A FLIM-assay was developed that specifically detects dynamin self-assembly into the higher order structures in podocytes. The assay is based on overexpressing dynamin in podocytes, and subsequently staining fixed cells with monoclonal anti-dynamin antibodies that have been conjugated with either Alexa-488 (donor florophore) or Alexa-568 (acceptor florophore). Cells are stained by mixing both florophores in equal amounts, and examining lifetime of Alexa-488. […] Importantly, FRET only occurred in the vicinity of the membrane. […] Thus, both dominant activating mutants, dynK694A and dynR725A, are impaired for assembly into a supramolecular structures in podocytes under normal conditions. […] Loss of FRET measured FLIM correlates with the loss of p40 proteolytic fragment in cultured podocytes. And presence of p40 in cells expressing dynR725A under normal conditions correlates with the lack of dynR725A assembly detected by FLIM. The opposite is true for the dynWT; lack of p40 under control conditions when FLIM is present, and appearance of the p40 upon LPS treatment with no measurable FRET. […] Finally, proteolytic processing of dynamin after LPS treatment is also observed in vivo. […]

[5] = test system: dynamin; test: Dynamin self-assembly, apparent affinity measured in vitro; assay type: biochemical
From the text: The fact that this significant decrease in the fluorescence lifetime of ECFP is statistically insignificant is due to high fluctuations of the lifetimes between different cells (high error bar in Table 3). This is most likely due to ability of dynK694A to overcome its assembly defect under certain circumstances as shown in vitro. The fact that ECFP-dynK694A has a faster lifetime than ECFP-dynI690K is in agreement with its less severe assembly defect measured in vitro (apparent affinity of dynK694A is ˜7-fold lower then dynWT, whereas it is unmeasurable for dynI690K).

T1 sequence (P07711 114-333, species assumed): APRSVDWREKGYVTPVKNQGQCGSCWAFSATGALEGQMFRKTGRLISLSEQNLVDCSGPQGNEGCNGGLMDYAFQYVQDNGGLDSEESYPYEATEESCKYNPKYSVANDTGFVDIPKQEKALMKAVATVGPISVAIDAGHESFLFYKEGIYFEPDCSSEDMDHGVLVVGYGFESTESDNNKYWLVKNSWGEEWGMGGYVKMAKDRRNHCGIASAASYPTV

Molecule: Nc1nc2c(ncn2[C@@H]2O[C@H](COP(=O)(O)OP(=O)(O)OP(=O)(O)O)[C@@H](O)[C@H]2O)c(=O)[nH]1 [GTP]
- cleavage of dynamin by cathepsin L, in words ([1]; pH 7.0): resulted in significant cleavage of dynamin by cathepsin L; also recorded: resulted in the generation of a prominent proteolytic fragment

Molecule: Nc1nc2c(ncn2[C@@H]2O[C@H](COP(=O)(O)OP(=O)(O)OP(O)(O)=S)[C@@H](O)[C@H]2O)c(=O)[nH]1 [GTPγS]
- cleavage of dynamin by cathepsin L, in words ([1]; acidic pH (5.0 and 6.0)): completely inhibited
- cleavage of dynamin by cathepsin L, in words ([1]; acidic pH (5.0 and 6.0), listed as GTP7S): completely inhibited
- cleavage of dynamin by cathepsin L, in words ([1]; acidic pH (5.0 and 6.0), listed as GTPgammaS): protects from cathepsin L mediated cleavage
- cleavage of dynamin by cathepsin L, in words ([1]; pH 7.0): abolished dynamin cleavage by cathepsin L; also recorded: did not stimulate cleavage by CatL
- cleavage of dynamin by cathepsin L, in words ([1]; pH 7.0, listed as GTPgammaS): inhibited

Molecule: CN(C)c1ncnc2c1ncn2[C@@H]1O[C@H](CO)[C@@H](N)[C@H]1O [PAN, puromycin aminonucleoside]
- percentage closure 12 h after post-wound incubation [2]: 63%

Molecule: CCCCCCCCCCCCC/C=C/[C@@H](O)[C@@H](N)CO [sphingosine]
- lysosomal integrity (Lucifer Yellow), in words [3]: led to the expected lysosomal rupture

B1: dynI690K: dynamin mutant with defective higher order assembly of tetramers (protein)
chain: MGNRGMEDLIPLVNRLQDAFSAIGQNADLDLPQIAVVGGQSAGKSSVLENFVGRDFLPRGSGIVTRRPLVLQLVNATTEYAEFLHCKGKKFTDFEEVRLEIEAETDRVTGTNKGISPVPINLRVYSPHVLNLTLVDLPGMTKVPVGDQPPDIEFQIRDMLMQFVTKENCLILAVSPANSDLANSDALKVAKEVDPQGQRTIGVITKLDLMDEGTDARDVLENKLLPLRRGYIGVVNRSQKDIDGKKDITAALAAERKFFLSHPSYRHLADRMGTPYLQKVLNQQLTNHIRDTLPGLRNKLQSQLLSIEKEVEEYKNFRPDDPARKTKALLQMVQQFAVDFEKRIEGSGDQIDTYELSGGARINRIFHERFPFELVKMEFDEKELRREISYAIKNIHGIRTGLFTPDMAFETIVKKQVKKIREPCLKCVDMVISELISTVRQCTKKLQQYPRLREEMERIVTTHIREREGRTKEQVMLLIDIELAYMNTNHEDFIGFANAQQRSNQMNKKKTSGNQDEILVIRKGWLTINNIGIMKGGSKEYWFVLTAENLSWYKDDEEKEKKYMLSVDNLKLRDVEKGFMSSKHIFALFNTEQRNVYKDYRQLELACETQEEVDSWKASFLRAGVYPERVGDKEKASETEENGSDSFMHSMDPQLERQVETIRNLVDSYMAIVNKTVRDLMPKTIMHLMKNNTKEFIFSELLANLYSCGDQNTLMEESAEQAQRRDEMLRMYHALKEALSIIGDINTTTVSTPMPPPVDDSWLQVQSVPAGRRSPTSSPTPQRRAPAVPPARPGSRGPAPGPPPAGSALGGAPPVPSRPGASPDPFGPPPQVPSRPNRAPPGVPSRSGQASPSRPESPRPPFDL
- Mean Lifetime (γ1) [4]: 2359 ± 120
- apparent affinity for self-assembly, fold lower than dynWT [5]: unmeasurable
